The values below come from patent publication US9808477B2 (Macau University of Science and Technology, priority 2015, dated 2017).

Read-outs that look alike come from different tables or passages of the source.

Type in all cases: cell-based, human
The subject of data set [1] is A2780/T cells (PTX-resistant, ABCB1-overexpressing ovarian cancer cells). The experiment in a line: cells. Particulars: for IC50: read-out: IC50 ± SD. As to the method:
(§1) Sulphorhodamine B (SRB) assays were used for cell density determination, based on sensitive measure of total cellular protein, which perform similarly compared with other proliferation assays such as MTT assay. Briefly, cells were seeded into flat bottomed 96-well plates at an initial density of 7.5×10^3 per well before treatment. […] After removing the medium, cells were fixed in 10% trichloroacetic acid for 1 h at 4° C. and then washed with water five times. 0.4% SRB dissolved in 1% v/v acetic acid was added and incubated […] for staining. The cells were quickly washed with 1% acetic acid and left to dry overnight. The protein bound SRB was solubilized by adding 200 μl 10 mM Tris buffer per well and was measured at wavelengths 490 nm using a plate reader (Spectra MAX 250; Molecular Devices, Sunnyvale, Calif.). The optical density of SRB in each well is directly proportional to the cell number.

In data set [2] the test system is A549/T cells (PTX-resistant, ABCB1-overexpressing NSCLC cells). The data set can be described thus: SRB cell cytotoxicity / MDR reversal assay. Particulars: for fold reversal: drug alone (reference). As for the experimental part:
as §1

Data set [3] concerns A2780/T cells. The data set can be described thus: Intracellular accumulation of doxorubicin and Flutax-2. As to conditions: 8 h, 4.5 μM nobiletin or 20 μM QND.
Data set [4] has as its system A2780/T cells. The data set can be described thus: Colony formation assay. Particulars: 9 μM nobiletin alone or 0.94 μM PTX alone, 12 days. From the text:
The A2780/T cells were trypsinized and plated in fresh culture medium at a density of 600 cells/9.6 cm^2 plate. Subsequently, the cells were fixed with 70% ethanol and stained with crystal violet (0.5% in ethanol). The plates were rinsed with phosphate buffered saline (PBS), and the colony numbers were counted using the software of Quantity one-Colony counting.

Data set [5] concerns A2780/T cells. The experiment in a line: Apoptosis analysis by Annexin-V/PI double staining. As to conditions: 9 μM nobiletin alone or 0.94 μM PTX alone. As to the method:
After treatment, 1×10^6 cells were collected, washed and suspended in 100 μl of binding buffer (10 mM N-2-hydroxyethylpiperazine-N,-2-ethanesulfonic acid/NaOH, 140 mM NaCl, 2.5 mM CaCl2, pH 7.4). Apoptotic cells were identified by double supravital staining with 5 μl recombinant FITC (fluorescein isothiocyanate)-conjugated Annexin-V and 5 μl PI (50 μg/ml). The cells were stained for […] at room temperature in the dark, and analyzed by fluorescence-activated cell sorting cater-plus flow cytometry. Data acquisition and analysis were performed in BD FACS Aria with FlowJo software.

For data set [6], the system named is A2780/T cells. The data set can be described thus: Cell cycle analysis (PI, flow cytometry). Particulars: 0.94 μM PTX, no nobiletin. As to the method: A2780/T cells were harvested 24 hours, 48 hours, or 72 hours after treatment and washed twice with ice-cold PBS. The cells were fixed and permeabilized with 70% ice-cold ethanol overnight at 4° C. or 2 h at −20° C. After one additional wash in PBS, cells were stained with a staining solution containing propidium iodide (PI) ([…]) and RNase A (250 μg/ml) for 30 min at room temperature. They were then pelleted, washed and suspended in PBS to a final concentration of 1×10^6/ml and analyzed by flow cytometry BD FACS Aria (BD Biosciences, San Jose, Calif.).

For a further data set, the system named is A2780 cells. The data set can be described thus: Cell cycle analysis (PI, flow cytometry). Particulars: A2780, PTX 0.01 μM. Background: A flow cytometer gives signals particle by particle.
The test system of data set [7] is A2780/T cells. The data set can be described thus: Combination index, Chou-Talalay method (CalcuSyn). Particulars: Homo sapiens, A2780, read-out: Dose PTX at Fa = 0.5 (ED50), CalcuSyn simulation, A2780/T; PTX dose, alone or in the combination.
[8] abbreviates: A2780/T, 48 h, drug +0.5 μM nobiletin (N).
The mark [9] stands for this setting: A2780/T, 48 h, drug +1.5 μM nobiletin (N).
Setting [10] is: A2780/T, 48 h, drug +4.5 μM nobiletin (N).
[11] abbreviates: Homo sapiens, A2780, 48 h, A2780/T, 48 h, SRB, drug alone (no nobiletin).
The mark [12] stands for this setting: Homo sapiens, A549, 48 h, 48 h, SRB, drug alone (no nobiletin).

The term IC50 denotes the point on the concentration scale where inhibition reaches its midpoint.

Take `O=c1[nH]cc(F)c(=O)[nH]1` [5-Fluorouracil]: the fold reversal in data set [1] and in data set [2] was 1.00 fold throughout. The IC50 in data set [1] (setting [8]) amounted to 132 ± 23.8 µM; in data set [1] (setting [9]), 79.8 ± 9.18 µM; in data set [1] (setting [10]) it was 26.1 ± 1.77 µM; in data set [1] (setting [11]) it was 159 ± 18.3 µM; in data set [2] (setting [12]) it was 134 ± 10.9 µM; in data set [2] (drug +4.5 μM nobiletin (N)) it was 16.8 ± 1.36 µM. In addition, the “Fold reversal (IC50 without / with nobiletin)” value in data set [2] (drug +0.5 μM nobiletin) came out at 1.26 ± 0.01 fold; in data set [2] (drug +1.5 μM nobiletin) it was 1.99 ± 0.01 fold; in data set [2] (drug +4.5 μM nobiletin), 7.94 ± 0.02 fold; in data set [2] (drug +4.5 μM nobiletin, listed as 5-fluorouracil), 7.94 fold.

In the case of `COc1cccc2c1C(=O)c1c(O)c3c(c(O)c1C2=O)C[C@@](O)(C(C)=O)C[C@@H]3O[C@H]1C[C@H](N)[C@H](O)[C@H](C)O1` [Daunorubicin], the fold reversal in data set [1] and in data set [2] was 1.00 fold each time. Also, the IC50 was 11.9 ± 0.97 µM in data set [1] (Homo sapiens, A2780, 48 h); 10.1 ± 1.63 µM in data set [2] (setting [12]); 5.97 ± 0.49 µM in data set [2] (drug +0.5 μM nobiletin (N)); 2.84 ± 0.46 µM in data set [2] (drug +1.5 μM nobiletin (N)); 0.71 ± 0.13 µM in data set [2] (drug +4.5 μM nobiletin (N)). The “Fold reversal (IC50 without / with nobiletin)” value in data set [2] (drug +0.5 μM nobiletin) is 1.68 ± 0.14 fold; in data set [2] (drug +1.5 μM nobiletin) it was 3.55 ± 0.01 fold; in data set [2] (drug +4.5 μM nobiletin), 14.17 ± 0.04 fold; in data set [2] (drug +4.5 μM nobiletin, listed as daunorubicin) it was 14.17 fold.

Consider `C=C[C@H]1C[N@@]2CC[C@H]1C[C@@H]2[C@@H](O)c1ccnc2ccc(OC)cc12` [QND, quinidine], for which the “intracellular accumulation of DOX” value in the data set with A2780/T cells [3] (5 μM DOX) was “higher than that in untreated A2780/T”. In addition, the “intracellular accumulation of Flutax-2” value with A2780/T cells [3] (Flutax-2 1 μM) is reported as “higher than that in untreated A2780/T”.

`COc1cccc2c1C(=O)c1c(O)c3c(c(O)c1C2=O)C[C@@](O)(C(=O)CO)C[C@@H]3O[C@H]1C[C@H](N)[C@H](O)[C@H](C)O1` [Doxorubicin]: the “degree of resistance: mean IC50 in A2780/T cells relative to A2780” value in data set [1] is recorded as 158 fold. Besides, the fold reversal in data set [1] and in data set [2] was 1.00 fold each time. In addition, the IC50 came to 3.77 ± 0.3 µM in data set [1] (setting [8]); 1.89 ± 0.16 µM in data set [1] (setting [9]); 1.13 ± 0.18 µM in data set [1] (setting [10]); 0.38 ± 0.04 µM in data set [1] (A2780/T, 48 h, drug +9 μM nobiletin (N)); 5.97 ± 0.49 µM in data set [1] (setting [11]); 5.97 ± 0.49 µM in data set [2] (setting [12]). For the same molecule, the IC50 stood at 4.23 ± 0.35 µM in data set [2] (drug +0.5 μM nobiletin (N)), 2.67 ± 0.22 µM in data set [2] (drug +1.5 μM nobiletin (N)) and 1.19 ± 0.1 µM in data set [2] (drug +4.5 μM nobiletin (N)). Moreover, the “Fold reversal (IC50 without / with nobiletin)” value in data set [2] (drug +0.5 μM nobiletin) is 1.42 ± 0.23 fold; in data set [2] (drug +1.5 μM nobiletin) it was 2.25 ± 0.37 fold; in data set [2] (drug +4.5 μM nobiletin) it was 5.01 ± 0.01 fold; in data set [2] (drug +4.5 μM nobiletin, listed as doxorubicin) it was 5.01 fold.

Consider `CC(=O)O[C@@]12CO[C@@H]1C[C@H](O)[C@@]1(C)C(=O)[C@H](O)C3=C(C)[C@@H](OC(=O)[C@H](O)[C@@H](NC(=O)OC(C)(C)C)c4ccccc4)C[C@@](O)([C@@H](OC(=O)c4ccccc4)[C@H]21)C3(C)C` [Docetaxel], for which the fold reversal in data set [1] and in data set [2] was 1.00 fold each time. The IC50 in data set [1] (setting [8]) stood at 8.97 ± 1.46 µM; in data set [1] (setting [10]), 1.13 ± 0.18 µM; in data set [1] (setting [11]), 17.9 ± 2.89 µM; in data set [1] (Homo sapiens, A2780, 48 h, A2780/T, 48 h, drug +1.5 μM nobiletin (N)), 3.57 ± 0.58 µM; in data set [2] (setting [12]), 13.4 ± 1.09 µM; in data set [2] (drug +0.5 μM nobiletin (N)) it was 8.43 ± 0.69 µM. In addition, the IC50 was found to be 2.67 ± 0.22 µM in data set [2] (drug +1.5 μM nobiletin (N)) and 0.71 ± 0.11 µM in data set [2] (drug +4.5 μM nobiletin (N)). Besides, the “Fold reversal (IC50 without / with nobiletin)” value in data set [2] (drug +0.5 μM nobiletin) turned out to be 1.59 ± 0.01 fold; in data set [2] (drug +1.5 μM nobiletin) it was 5.05 ± 0.82 fold; in data set [2] (drug +4.5 μM nobiletin), 19.18 ± 4.59 fold; in data set [2] (drug +4.5 μM nobiletin, listed as docetaxel) it was 19.18 fold.

With `CC(=O)O[C@H]1C(=O)[C@@]2(C)[C@H]([C@H](OC(=O)c3ccccc3)[C@]3(O)C[C@H](OC(=O)[C@H](O)[C@@H](NC(=O)c4ccccc4)c4ccccc4)C(C)=C1C3(C)C)[C@]1(OC(C)=O)CO[C@@H]1C[C@@H]2O` [Paclitaxel], in data set [1], the “degree of resistance: mean IC50 in A2780/T cells relative to A2780” value was determined as 501 fold. Besides, the fold reversal in data set [1] and in data set [2] was 1.00 fold throughout. For the same molecule, the IC50 in data set [1] (Homo sapiens, A2780, 48 h) was found to be 2.51 µM; in data set [2] (setting [12]), 1.89 ± 0.15 µM; in data set [2] (drug +0.5 μM nobiletin (N)), 0.75 ± 0.06 µM; in data set [2] (drug +1.5 μM nobiletin (N)), 0.34 ± 0.02 µM; in data set [2] (drug +4.5 μM nobiletin (N)), 0.09 ± 0.01 µM; in data set [2] (drug +9 μM nobiletin (N)), 0.03 ± 0.004 µM. Besides, the “Fold reversal (IC50 without / with nobiletin)” value amounted to 2.51 ± 0.01 fold in data set [2] (drug +0.5 μM nobiletin); 2.51 fold in data set [2] (drug +0.5 μM nobiletin, listed as PTX); 5.65 ± 0.8 fold in data set [2] (drug +1.5 μM nobiletin); 5.65 fold in data set [2] (drug +1.5 μM nobiletin, listed as PTX); 22.33 ± 3.6 fold in data set [2] (drug +4.5 μM nobiletin); 22.33 fold in data set [2] (drug +4.5 μM nobiletin, listed as PTX). Further, the “Fold reversal (IC50 without / with nobiletin)” value is listed as 22.33 fold in data set [2] (drug +4.5 μM nobiletin, listed as paclitaxel); 62.88 ± 0.98 fold in data set [2] (drug +9 μM nobiletin); 62.88 fold in data set [2] (drug +9 μM nobiletin, listed as PTX). Further, the “inhibition of colony formation, single agent” value in the data set on A2780/T cells [4] is recorded as “no inhibition”. For the same molecule, the “apoptosis induction, single treatment” value in the data set on A2780/T cells [5] was “did not show apoptosis induction”. Also, the G1 phase cells in the data set with A2780/T cells [6] is 72%. This molecule also registered a G2 phase cells with A2780/T cells [6] of 17%. Besides, the G1 phase content with A2780 cells (24 hours) is recorded as 46.47%; with A2780 cells (48 hours) it was 15.57%; in the data set with A2780 cells (72 hours), 5.53%. Also, the G2-M content is given as 31.9% in the data set with A2780 cells (24 hours), 63.2% with A2780 cells (48 hours) and 80.07% with A2780 cells (72 hours). In the data set with A2780/T cells [7], the EC50 was 4.2 µM.
